Reference: patent publication US11752138B2 (VANDERBILT UNIVERSITY, priority 2020, dated 2023)

molecular target: Human LDHA (Homo sapiens (Human), UniProt P00338); experiment: human LDHA primary biochemical assay (Example 1); conditions: biochemical LDHA inhibitory activity, assay of Example 1

| SMILES | IC50 |
| --- | --- |
| NS(=O)(=O)c1ccc(Cc2c(-c3cccc(-c4ccc5c(c4)CCC5)c3)nn(-c3nc(C(=O)O)cs3)c2CC2CC2)cc1F [Compound 220, 2-(5-(cyclopropylmethyl)-3-(3-(2,3-dihydro-1H-inden-5-yl)phenyl)-4-(3-fluoro-4-sulfamoylbenzyl)-1H-pyrazol-1-yl)thiazole-4-carboxylic acid] | < 0.1 µM |
| NS(=O)(=O)c1ccc(Cc2c(-c3cccc(-c4ccc(C5CC5)cc4)c3)nn(-c3nc(C(=O)O)cs3)c2CC2CC2)cc1F [Compound 222, 2-(3-(4′-cyclopropyl-[1,1′-biphenyl]-3-yl)-5-(cyclopropylmethyl)-4-(3-fluoro-4-sulfamoylbenzyl)-1H-pyrazol-1-yl)thiazole-4-carboxylic acid] | 0.1 to 1 µM |
| Cc1cc(-c2cccc(-c3nn(-c4nc(C(=O)O)cs4)c(CC4CC4)c3Cc3ccc(S(N)(=O)=O)c(F)c3)c2)ccc1O [Compound 228, 2-(5-(cyclopropylmethyl)-4-(3-fluoro-4-sulfamoylbenzyl)-3-(4′-hydroxy-3′-methyl-[1,1′-biphenyl]-3-yl)-1H-pyrazol-1-yl)thiazole-4-carboxylic acid] | < 0.1 µM |
| NS(=O)(=O)c1ccc(Cc2c(-c3cccc(-c4ccc(O)c(F)c4)c3)nn(-c3nc(C(=O)O)cs3)c2CC2CC2)cc1F [Compound 229, 2-(5-(cyclopropylmethyl)-3-(3′-fluoro-4′-hydroxy-[1,1′-biphenyl]-3-yl)-4-(3-fluoro-4-sulfamoylbenzyl)-1H-pyrazol-1-yl)thiazole-4-carboxylic acid] | < 0.1 µM |
| Cc1ccc(C#Cc2cccc(-c3nn(-c4nc(C(=O)O)cs4)c(CC4CC4)c3Cc3ccc(S(N)(=O)=O)c(F)c3)n2)s1 [Compound 231, 2-(5-(cyclopropylmethyl)-4-(3-fluoro-4-sulfamoylbenzyl)-3-(6-((5-methylthiophen-2-yl)ethynyl)pyridin-2-yl)-1H-pyrazol-1-yl)thiazole-4-carboxylic acid] | < 0.1 µM |
| Cc1ccc(C(=O)Cc2cccc(-c3nn(-c4nc(C(=O)O)cs4)c(CC4CC4)c3Cc3ccc(S(N)(=O)=O)c(F)c3)c2)s1 [Compound 242, 2-(5-(cyclopropylmethyl)-4-(3-fluoro-4-sulfamoylbenzyl)-3-(3-(2-(5-methylthiophen-2-yl)-2-oxoethyl)phenyl)-1H-pyrazol-1-yl)thiazole-4-carboxylic acid] | < 0.1 µM |
| Cc1ccc(C#Cc2cccc(-c3nn(-c4nc(C(=O)O)co4)c(CC4CC4)c3Cc3ccc(S(N)(=O)=O)c(F)c3)c2)s1 [Compound 247, 2-(5-(cyclopropylmethyl)-4-(3-fluoro-4-sulfamoylbenzyl)-3-(3-((5-methylthiophen-2-yl)ethynyl)phenyl)-1H-pyrazol-1-yl)oxazole-4-carboxylic acid] | < 0.1 µM |

Results, then the compound that gave them:

| IC50 | SMILES |
| --- | --- |
| < 0.1 µM | Cc1ccc(C#Cc2cccc(-c3nn(-c4nc(C(=O)O)cs4)c(CCC4CC4)c3Cc3ccc(S(N)(=O)=O)c(F)c3)c2)o1 [Compound 232, 2-(5-(2-cyclopropylethyl)-4-(3-fluoro-4-sulfamoylbenzyl)-3-(3-((5-methylfuran-2-yl)ethynyl)phenyl)-1H-pyrazol-1-yl)thiazole-4-carboxylic acid] |
| < 0.1 µM | Cc1cnc(C#Cc2cccc(-c3nn(-c4nc(C(=O)O)cs4)c(CCC4CC4)c3Cc3ccc(S(N)(=O)=O)c(F)c3)c2)s1 [Compound 234, 2-(5-(2-cyclopropylethyl)-4-(3-fluoro-4-sulfamoylbenzyl)-3-(3-((5-methylthiazol-2-yl)ethynyl)phenyl)-1H-pyrazol-1-yl)thiazole-4-carboxylic acid] |
| < 0.1 µM | Cc1ncc(C#Cc2cccc(-c3nn(-c4nc(C(=O)O)cs4)c(CCC4CC4)c3Cc3ccc(S(N)(=O)=O)c(F)c3)c2)s1 [Compound 235, 2-(5-(2-cyclopropylethyl)-4-(3-fluoro-4-sulfamoylbenzyl)-3-(3-((2-methylthiazol-5-yl)ethynyl)phenyl)-1H-pyrazol-1-yl)thiazole-4-carboxylic acid] |
| < 0.1 µM | Cc1nc(C#Cc2cccc(-c3nn(-c4nc(C(=O)O)cs4)c(CC4CC4)c3Cc3ccc(S(N)(=O)=O)c(F)c3)c2)cs1 [Compound 236, 2-(5-(cyclopropylmethyl)-4-(3-fluoro-4-sulfamoylbenzyl)-3-(3-((2-methylthiazol-4-yl)ethynyl)phenyl)-1H-pyrazol-1-yl)thiazole-4-carboxylic acid] |
| < 0.1 µM | Cc1cc(C#Cc2cccc(-c3nn(-c4nc(C(=O)O)cs4)c(CC4CC4)c3Cc3ccc(S(N)(=O)=O)c(F)c3)c2)cs1 [Compound 240, 2-(5-(cyclopropylmethyl)-4-(3-fluoro-4-sulfamoylbenzyl)-3-(3-((5-methylthiophen-3-yl)ethynyl)phenyl)-1H-pyrazol-1-yl)thiazole-4-carboxylic acid] |
| < 0.1 µM | Cc1nc(C#Cc2cccc(-c3nn(-c4nc(C(=O)O)cs4)c(CCC4CC4)c3Cc3ccc(S(N)(=O)=O)c(F)c3)c2)cs1 [Compound 243, 2-(5-(2-cyclopropylethyl)-4-(3-fluoro-4-sulfamoylbenzyl)-3-(3-((2-methylthiazol-4-yl)ethynyl)phenyl)-1H-pyrazol-1-yl)thiazole-4-carboxylic acid] |

system: LDH; experiment: LDH activity in mice liver lysates, rate of conversion of glyoxylate to oxalate (FIG. 2); format: in vivo; conditions: 5-10 mg/kg, oral daily dose for 5 days; liver harvested two hours after last dose; wild type and AGXT null mice
Protocol: FIG. 2. LDH activity as measured by the rate of conversion of glyoxylate (G) to oxalate (O) in mice livers. Wild type mice, closed circles; AGXT null mice; open squares. […] Liver was harvested from animals two hours after delivery of the last drug dose. Enzyme assays were performed with liver lysates in 0.1M Glycine-Sodium hydroxide buffer, pH 9.6, 20 mM glyoxylate, 3.25 mM NAD+, and the rate of increase in absorbance at 340 nm monitored at room temperature

| SMILES | suppression of oxalate production in mice liver (LDH activity, glyoxylate to oxalate) |
| --- | --- |
| Cc1ccc(C#Cc2cccc(-c3nn(-c4nc(C(=O)O)co4)c(CC4CC4)c3Cc3ccc(S(N)(=O)=O)c(F)c3)c2)s1 [Compound 247, 2-(5-(cyclopropylmethyl)-4-(3-fluoro-4-sulfamoylbenzyl)-3-(3-((5-methylthiophen-2-yl)ethynyl)phenyl)-1H-pyrazol-1-yl)oxazole-4-carboxylic acid] | Maximal suppression of oxalate production |
